Values quoted from earlier work as cited in patent publication EP2502493B1, “Novel alpha-galactosidases” (Velico Medical, Inc., priority 2005, dated 2007).

System: α-galactosidase from the marine bacterium Pseudoalteromonas spp. (KMM 701)
Conditions: isolated enzyme preparation, purified to 9.8U/mg; monosaccharide substrate pNP-Gal; read-out: apparent Km for pNP-Gal

Question: Which Km does the source give for `O=[N+]([O-])c1ccc(O[C@H]2O[C@H](CO)[C@H](O)[C@H](O)[C@H]2O)cc1` [pNP-Gal, p-nitrophenyl α-D-Gal] here?
Answer: 290 µM
